Data published in the OPERA property sets (Mansouri et al. 2018).

| logP | SMILES |
| --- | --- |
| 0.47 | COC(=O)c1cncc(Cl)n1 |
| 2.22 | CCOc1cncc(Cl)n1 |
| 1.53 | Clc1cncc(Cl)n1 |
| 1.16 | Fc1cncc(Cl)n1 |
| 1.04 | Cc1cncc(Cl)n1 |
| 1.65 | COc1cncc(Cl)n1 |
| 1.95 | CN(C)c1cncc(Cl)n1 |
| 0.95 | Nc1cncc(Cl)n1 |
| 1.1 | CC(=O)Nc1cncc(Cl)n1 |
| 0.28 | NC(=O)c1cncc(Cl)n1 |
| 2.71 | CCCOc1cncc(Cl)n1 |
| 0.79 | N#Cc1cncc(Cl)n1 |
